Data on one compound can be found in article PMC9023744, “The Cytochrome P450 OxyA from the Kistamicin Biosynthesis Cyclization Cascade is Highly Sensitive to Oxidative Damage” (Frontiers in Chemistry, 2022).

In one test the target is T1, OxyCkis.
T1 construct: gene OxyC; recombinant, expressed in E. coli Arctic Express; Ni-NTA, anion exchange, size exclusion
Kind of test: UV-visible difference spectroscopy titration, one-site model. Type of test: binding. As to conditions: 50 mM Tris-HCl pH 8, 30°C; 2.5 µM enzyme.

Another test deals with T2, OxyAkis ([Actinomadura] parvosata, UniProt A0A1V0AG67).
T2 construct: gene BKM31_54160; pET28a, His-tagged, expressed in E. coli Arctic Express; Ni-NTA, anion exchange, size exclusion
T2 sequence (A0A1V0AG67 entry or part of it): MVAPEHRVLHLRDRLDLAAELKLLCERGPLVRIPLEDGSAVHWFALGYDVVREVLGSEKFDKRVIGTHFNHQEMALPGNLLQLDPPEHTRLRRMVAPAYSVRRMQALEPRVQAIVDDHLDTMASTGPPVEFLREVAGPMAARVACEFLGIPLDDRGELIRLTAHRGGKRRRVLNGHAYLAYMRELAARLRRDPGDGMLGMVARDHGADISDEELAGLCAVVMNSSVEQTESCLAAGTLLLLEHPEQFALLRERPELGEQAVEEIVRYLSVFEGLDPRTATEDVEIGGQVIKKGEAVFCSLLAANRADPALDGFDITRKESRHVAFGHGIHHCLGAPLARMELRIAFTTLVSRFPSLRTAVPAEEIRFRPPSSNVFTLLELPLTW
Described as above. Type of test: binding.

For orientation: Kd means a measure of binding affinity in units of concentration. Read a low Kd as higher affinity.

As to `c1c[nH]cn1` [imidazole], the Kd was found to be 84 µM on OxyCkis and 120 µM at OxyAkis.
